Reference: publication PMC11908448 (Bioorganic chemistry, 2019)
pIC50: −log10 of the molar value. Like-named read-outs stand apart in the source and are kept apart here.

Columns and labels:
Bovine XO [1] = target: T1, Bovine XO (Bos taurus, UniProt P80457); experiment: Determination of inhibitory potency against XO activity; assay type: biochemical
Bovine XO [2] = target: T1, Bovine XO; conditions: cited from earlier work

T1 sequence (P80457 whole entry): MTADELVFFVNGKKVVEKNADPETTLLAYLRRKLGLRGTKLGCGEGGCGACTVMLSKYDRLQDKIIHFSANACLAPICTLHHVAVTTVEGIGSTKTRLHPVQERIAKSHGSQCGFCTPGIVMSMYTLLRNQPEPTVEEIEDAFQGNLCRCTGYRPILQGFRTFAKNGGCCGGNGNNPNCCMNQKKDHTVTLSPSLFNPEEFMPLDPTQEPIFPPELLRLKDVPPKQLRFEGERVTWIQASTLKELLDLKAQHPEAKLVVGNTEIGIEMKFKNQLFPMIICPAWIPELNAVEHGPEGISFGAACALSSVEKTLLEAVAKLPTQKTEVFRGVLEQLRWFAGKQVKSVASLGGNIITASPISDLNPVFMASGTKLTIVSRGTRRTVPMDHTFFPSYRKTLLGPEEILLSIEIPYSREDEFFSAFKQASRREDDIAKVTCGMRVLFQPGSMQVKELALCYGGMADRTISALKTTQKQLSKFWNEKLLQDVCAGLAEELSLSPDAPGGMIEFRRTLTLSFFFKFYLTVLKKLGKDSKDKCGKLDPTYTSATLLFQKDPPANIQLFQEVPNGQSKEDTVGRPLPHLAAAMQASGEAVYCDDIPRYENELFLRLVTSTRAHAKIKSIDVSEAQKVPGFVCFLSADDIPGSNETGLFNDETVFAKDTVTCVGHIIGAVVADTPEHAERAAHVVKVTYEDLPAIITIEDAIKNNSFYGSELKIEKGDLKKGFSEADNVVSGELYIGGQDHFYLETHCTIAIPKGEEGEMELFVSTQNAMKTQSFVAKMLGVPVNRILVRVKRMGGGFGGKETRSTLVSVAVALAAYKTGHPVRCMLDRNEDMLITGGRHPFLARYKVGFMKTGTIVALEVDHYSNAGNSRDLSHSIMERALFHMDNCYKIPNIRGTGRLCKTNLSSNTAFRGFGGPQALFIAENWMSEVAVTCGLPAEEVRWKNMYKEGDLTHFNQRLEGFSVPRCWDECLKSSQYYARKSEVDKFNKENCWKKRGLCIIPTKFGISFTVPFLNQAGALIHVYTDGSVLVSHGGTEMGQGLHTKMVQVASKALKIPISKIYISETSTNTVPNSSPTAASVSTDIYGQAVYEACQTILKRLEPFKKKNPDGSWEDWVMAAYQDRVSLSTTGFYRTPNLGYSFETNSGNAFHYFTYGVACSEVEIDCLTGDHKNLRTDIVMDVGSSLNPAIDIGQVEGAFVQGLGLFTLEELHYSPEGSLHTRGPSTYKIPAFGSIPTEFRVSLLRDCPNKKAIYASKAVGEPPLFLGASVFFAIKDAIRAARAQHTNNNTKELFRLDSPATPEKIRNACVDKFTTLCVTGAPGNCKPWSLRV

pIC50 (Bovine XO [1])	XO inhibitory potency (in words) (Bovine XO [1]; reported by others [41] or measured by the authors)	Compound	mode of XO inhibition (Bovine XO [2]; kinetic studies)	XO inhibitory potency (in words) (Bovine XO [2]; literature statement)
5.41	–	O=C(/C=C/c1ccc(O)c(O)c1)OCCc1ccccc1 [Compound 1, (E)-phenethyl 3-(3,4-dihydroxyphenyl)acrylate]	competitive inhibitor	low micromolar range
~6.60	–	O=C(/C=C/c1ccc(O)c(O)c1)Oc1ccccc1 [Compound 8, (E)-phenyl 3-(3,4-dihydroxyphenyl)acrylate]	–	–
–	low nanomolar or subnanomolar range	Cc1nc(-c2ccc(OCC(C)C)c(C#N)c2)sc1C(=O)O [febuxostat, Febuxostat, reference compound]	–	–
